Test results taken from PubChem BioAssay (NCI).
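These data come from cells grown in 96-well plates and exposed to compound for 48 hours at five concentrations. TGI: total growth inhibition.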

System: OVCAR-8 ovarian
Assay: inhibition of tumour cell growth, NCI panel, 48 h

SMILES	TGI [µM]
CN1CCC(C(O)(c2ccccc2)c2ccc(Br)cc2)CC1 (centres undefined)	> 100
CC(=O)Nc1cccc(N2C(=O)/C(=C\c3cccc(Oc4ccccc4)c3)SC2c2ccccc2)c1 (centres undefined)	> 100
O=c1c(Sc2c(SCSc3cnc4ccccc4c3Sc3c[nH]c4ccccc4c3=O)cnc3ccccc23)c[nH]c2ccccc12	> 100
CSc1nc(=O)cnn1C	> 100
Nc1ncc2ncn(C3CCC(CO)O3)c2n1 (centres undefined)	> 100

System: OVCAR-3 ovarian
Assay: inhibition of tumour cell growth, NCI panel, 48 h

SMILES	TGI [µM]
O=NNc1ccc(S(=O)(=O)c2ccc3ccccc3c2)cn1	> 100
C[C@@H]1CC[C@H]2[C@H](C)C(OC3O[C@@H]4O[C@@]5(C)CC[C@H]6[C@H](C)CC[C@@H]([C@@H]3C)[C@@]46O5)O[C@@H]3O[C@@]4(C)CC[C@@H]1[C@]32O4 (some centres undefined)	> 100
CN1CCC(C(O)(c2ccccc2)c2ccc(Br)cc2)CC1 (centres undefined)	> 100
CC(=O)Nc1cccc(N2C(=O)/C(=C\c3cccc(Oc4ccccc4)c3)SC2c2ccccc2)c1 (centres undefined)	> 100
O=c1c(Sc2c(SCSc3cnc4ccccc4c3Sc3c[nH]c4ccccc4c3=O)cnc3ccccc23)c[nH]c2ccccc12	> 100
CSc1nc(=O)cnn1C	> 100
Nc1ncc2ncn(C3CCC(CO)O3)c2n1 (centres undefined)	> 100

System: HOP-92 NSCLC
Assay: inhibition of tumour cell growth, NCI panel, 48 h

SMILES	TGI [µM]
CN1CCC(C(O)(c2ccccc2)c2ccc(Br)cc2)CC1 (centres undefined)	70.4
CC(=O)Nc1cccc(N2C(=O)/C(=C\c3cccc(Oc4ccccc4)c3)SC2c2ccccc2)c1 (centres undefined)	> 100
O=c1c(Sc2c(SCSc3cnc4ccccc4c3Sc3c[nH]c4ccccc4c3=O)cnc3ccccc23)c[nH]c2ccccc12	> 100

System: KM12 colon
Assay: inhibition of tumour cell growth, NCI panel, 48 h

SMILES	TGI [µM]
O=NNc1ccc(S(=O)(=O)c2ccc3ccccc3c2)cn1	> 100
C[C@@H]1CC[C@H]2[C@H](C)C(OC3O[C@@H]4O[C@@]5(C)CC[C@H]6[C@H](C)CC[C@@H]([C@@H]3C)[C@@]46O5)O[C@@H]3O[C@@]4(C)CC[C@@H]1[C@]32O4 (some centres undefined)	> 100
CN1CCC(C(O)(c2ccccc2)c2ccc(Br)cc2)CC1 (centres undefined)	43.2
CC(=O)Nc1cccc(N2C(=O)/C(=C\c3cccc(Oc4ccccc4)c3)SC2c2ccccc2)c1 (centres undefined)	> 100
O=c1c(Sc2c(SCSc3cnc4ccccc4c3Sc3c[nH]c4ccccc4c3=O)cnc3ccccc23)c[nH]c2ccccc12	> 100
CSc1nc(=O)cnn1C	> 100
Nc1ncc2ncn(C3CCC(CO)O3)c2n1 (centres undefined)	> 100

System: IGROV1 ovarian
Assay: inhibition of tumour cell growth, NCI panel, 48 h

SMILES	TGI [µM]
O=NNc1ccc(S(=O)(=O)c2ccc3ccccc3c2)cn1	> 100
CN1CCC(C(O)(c2ccccc2)c2ccc(Br)cc2)CC1 (centres undefined)	> 100
O=c1c(Sc2c(SCSc3cnc4ccccc4c3Sc3c[nH]c4ccccc4c3=O)cnc3ccccc23)c[nH]c2ccccc12	> 100
CSc1nc(=O)cnn1C	> 100
Nc1ncc2ncn(C3CCC(CO)O3)c2n1 (centres undefined)	> 100

System: DU-145 prostate
Assay: inhibition of tumour cell growth, NCI panel, 48 h

SMILES	TGI [µM]
O=NNc1ccc(S(=O)(=O)c2ccc3ccccc3c2)cn1	> 100
C[C@@H]1CC[C@H]2[C@H](C)C(OC3O[C@@H]4O[C@@]5(C)CC[C@H]6[C@H](C)CC[C@@H]([C@@H]3C)[C@@]46O5)O[C@@H]3O[C@@]4(C)CC[C@@H]1[C@]32O4 (some centres undefined)	> 100
CN1CCC(C(O)(c2ccccc2)c2ccc(Br)cc2)CC1 (centres undefined)	> 100
CC(=O)Nc1cccc(N2C(=O)/C(=C\c3cccc(Oc4ccccc4)c3)SC2c2ccccc2)c1 (centres undefined)	> 100
O=c1c(Sc2c(SCSc3cnc4ccccc4c3Sc3c[nH]c4ccccc4c3=O)cnc3ccccc23)c[nH]c2ccccc12	> 100
CSc1nc(=O)cnn1C	> 100
Nc1ncc2ncn(C3CCC(CO)O3)c2n1 (centres undefined)	> 100

System: MOLT-4 leukemia
Assay: inhibition of tumour cell growth, NCI panel, 48 h

SMILES	TGI [µM]
C[C@@H]1CC[C@H]2[C@H](C)C(OC3O[C@@H]4O[C@@]5(C)CC[C@H]6[C@H](C)CC[C@@H]([C@@H]3C)[C@@]46O5)O[C@@H]3O[C@@]4(C)CC[C@@H]1[C@]32O4 (some centres undefined)	> 100
CN1CCC(C(O)(c2ccccc2)c2ccc(Br)cc2)CC1 (centres undefined)	61.3
CC(=O)Nc1cccc(N2C(=O)/C(=C\c3cccc(Oc4ccccc4)c3)SC2c2ccccc2)c1 (centres undefined)	> 100
O=c1c(Sc2c(SCSc3cnc4ccccc4c3Sc3c[nH]c4ccccc4c3=O)cnc3ccccc23)c[nH]c2ccccc12	> 100
CSc1nc(=O)cnn1C	> 100
Nc1ncc2ncn(C3CCC(CO)O3)c2n1 (centres undefined)	> 100

System: HL-60(TB) leukemia
Assay: inhibition of tumour cell growth, NCI panel, 48 h

SMILES	TGI [µM]
O=NNc1ccc(S(=O)(=O)c2ccc3ccccc3c2)cn1	> 100
C[C@@H]1CC[C@H]2[C@H](C)C(OC3O[C@@H]4O[C@@]5(C)CC[C@H]6[C@H](C)CC[C@@H]([C@@H]3C)[C@@]46O5)O[C@@H]3O[C@@]4(C)CC[C@@H]1[C@]32O4 (some centres undefined)	> 100
CN1CCC(C(O)(c2ccccc2)c2ccc(Br)cc2)CC1 (centres undefined)	66.5
CC(=O)Nc1cccc(N2C(=O)/C(=C\c3cccc(Oc4ccccc4)c3)SC2c2ccccc2)c1 (centres undefined)	> 100
O=c1c(Sc2c(SCSc3cnc4ccccc4c3Sc3c[nH]c4ccccc4c3=O)cnc3ccccc23)c[nH]c2ccccc12	> 100
Nc1ncc2ncn(C3CCC(CO)O3)c2n1 (centres undefined)	> 100

System: SN12C renal
Assay: inhibition of tumour cell growth, NCI panel, 48 h

SMILES	TGI [µM]
O=NNc1ccc(S(=O)(=O)c2ccc3ccccc3c2)cn1	> 100
C[C@@H]1CC[C@H]2[C@H](C)C(OC3O[C@@H]4O[C@@]5(C)CC[C@H]6[C@H](C)CC[C@@H]([C@@H]3C)[C@@]46O5)O[C@@H]3O[C@@]4(C)CC[C@@H]1[C@]32O4 (some centres undefined)	> 100
CN1CCC(C(O)(c2ccccc2)c2ccc(Br)cc2)CC1 (centres undefined)	44.3
CC(=O)Nc1cccc(N2C(=O)/C(=C\c3cccc(Oc4ccccc4)c3)SC2c2ccccc2)c1 (centres undefined)	> 100
O=c1c(Sc2c(SCSc3cnc4ccccc4c3Sc3c[nH]c4ccccc4c3=O)cnc3ccccc23)c[nH]c2ccccc12	> 100
CSc1nc(=O)cnn1C	> 100
Nc1ncc2ncn(C3CCC(CO)O3)c2n1 (centres undefined)	> 100

System: K-562 leukemia
Assay: inhibition of tumour cell growth, NCI panel, 48 h

SMILES	TGI [µM]
O=NNc1ccc(S(=O)(=O)c2ccc3ccccc3c2)cn1	> 100
C[C@@H]1CC[C@H]2[C@H](C)C(OC3O[C@@H]4O[C@@]5(C)CC[C@H]6[C@H](C)CC[C@@H]([C@@H]3C)[C@@]46O5)O[C@@H]3O[C@@]4(C)CC[C@@H]1[C@]32O4 (some centres undefined)	> 100
CN1CCC(C(O)(c2ccccc2)c2ccc(Br)cc2)CC1 (centres undefined)	35.9
CC(=O)Nc1cccc(N2C(=O)/C(=C\c3cccc(Oc4ccccc4)c3)SC2c2ccccc2)c1 (centres undefined)	> 100
CSc1nc(=O)cnn1C	> 100
Nc1ncc2ncn(C3CCC(CO)O3)c2n1 (centres undefined)	> 100

System: TK-10 renal
Assay: inhibition of tumour cell growth, NCI panel, 48 h

SMILES	TGI [µM]
O=NNc1ccc(S(=O)(=O)c2ccc3ccccc3c2)cn1	> 100
C[C@@H]1CC[C@H]2[C@H](C)C(OC3O[C@@H]4O[C@@]5(C)CC[C@H]6[C@H](C)CC[C@@H]([C@@H]3C)[C@@]46O5)O[C@@H]3O[C@@]4(C)CC[C@@H]1[C@]32O4 (some centres undefined)	> 100
CN1CCC(C(O)(c2ccccc2)c2ccc(Br)cc2)CC1 (centres undefined)	98.7
CC(=O)Nc1cccc(N2C(=O)/C(=C\c3cccc(Oc4ccccc4)c3)SC2c2ccccc2)c1 (centres undefined)	> 100
O=c1c(Sc2c(SCSc3cnc4ccccc4c3Sc3c[nH]c4ccccc4c3=O)cnc3ccccc23)c[nH]c2ccccc12	> 100
CSc1nc(=O)cnn1C	> 100
Nc1ncc2ncn(C3CCC(CO)O3)c2n1 (centres undefined)	> 100

System: CAKI-1 renal
Assay: inhibition of tumour cell growth, NCI panel, 48 h

SMILES	TGI [µM]
O=NNc1ccc(S(=O)(=O)c2ccc3ccccc3c2)cn1	> 100
C[C@@H]1CC[C@H]2[C@H](C)C(OC3O[C@@H]4O[C@@]5(C)CC[C@H]6[C@H](C)CC[C@@H]([C@@H]3C)[C@@]46O5)O[C@@H]3O[C@@]4(C)CC[C@@H]1[C@]32O4 (some centres undefined)	> 100
CN1CCC(C(O)(c2ccccc2)c2ccc(Br)cc2)CC1 (centres undefined)	> 100
CC(=O)Nc1cccc(N2C(=O)/C(=C\c3cccc(Oc4ccccc4)c3)SC2c2ccccc2)c1 (centres undefined)	> 100
O=c1c(Sc2c(SCSc3cnc4ccccc4c3Sc3c[nH]c4ccccc4c3=O)cnc3ccccc23)c[nH]c2ccccc12	> 100
CSc1nc(=O)cnn1C	> 100
Nc1ncc2ncn(C3CCC(CO)O3)c2n1 (centres undefined)	> 100

System: SK-OV-3 ovarian
Assay: inhibition of tumour cell growth, NCI panel, 48 h

SMILES	TGI [µM]
O=NNc1ccc(S(=O)(=O)c2ccc3ccccc3c2)cn1	> 100
C[C@@H]1CC[C@H]2[C@H](C)C(OC3O[C@@H]4O[C@@]5(C)CC[C@H]6[C@H](C)CC[C@@H]([C@@H]3C)[C@@]46O5)O[C@@H]3O[C@@]4(C)CC[C@@H]1[C@]32O4 (some centres undefined)	> 100
CN1CCC(C(O)(c2ccccc2)c2ccc(Br)cc2)CC1 (centres undefined)	> 100
CC(=O)Nc1cccc(N2C(=O)/C(=C\c3cccc(Oc4ccccc4)c3)SC2c2ccccc2)c1 (centres undefined)	> 100
CSc1nc(=O)cnn1C	> 100
Nc1ncc2ncn(C3CCC(CO)O3)c2n1 (centres undefined)	> 100

System: UACC-257 melanoma
Assay: inhibition of tumour cell growth, NCI panel, 48 h

SMILES	TGI [µM]
O=NNc1ccc(S(=O)(=O)c2ccc3ccccc3c2)cn1	> 100
C[C@@H]1CC[C@H]2[C@H](C)C(OC3O[C@@H]4O[C@@]5(C)CC[C@H]6[C@H](C)CC[C@@H]([C@@H]3C)[C@@]46O5)O[C@@H]3O[C@@]4(C)CC[C@@H]1[C@]32O4 (some centres undefined)	> 100
CN1CCC(C(O)(c2ccccc2)c2ccc(Br)cc2)CC1 (centres undefined)	29.7
CC(=O)Nc1cccc(N2C(=O)/C(=C\c3cccc(Oc4ccccc4)c3)SC2c2ccccc2)c1 (centres undefined)	> 100
O=c1c(Sc2c(SCSc3cnc4ccccc4c3Sc3c[nH]c4ccccc4c3=O)cnc3ccccc23)c[nH]c2ccccc12	> 100
CSc1nc(=O)cnn1C	> 100
Nc1ncc2ncn(C3CCC(CO)O3)c2n1 (centres undefined)	> 100

System: UACC-62 melanoma
Assay: inhibition of tumour cell growth, NCI panel, 48 h

SMILES	TGI [µM]
O=NNc1ccc(S(=O)(=O)c2ccc3ccccc3c2)cn1	> 100
C[C@@H]1CC[C@H]2[C@H](C)C(OC3O[C@@H]4O[C@@]5(C)CC[C@H]6[C@H](C)CC[C@@H]([C@@H]3C)[C@@]46O5)O[C@@H]3O[C@@]4(C)CC[C@@H]1[C@]32O4 (some centres undefined)	> 100
CN1CCC(C(O)(c2ccccc2)c2ccc(Br)cc2)CC1 (centres undefined)	30.1
CC(=O)Nc1cccc(N2C(=O)/C(=C\c3cccc(Oc4ccccc4)c3)SC2c2ccccc2)c1 (centres undefined)	> 100
O=c1c(Sc2c(SCSc3cnc4ccccc4c3Sc3c[nH]c4ccccc4c3=O)cnc3ccccc23)c[nH]c2ccccc12	> 100
CSc1nc(=O)cnn1C	> 100
Nc1ncc2ncn(C3CCC(CO)O3)c2n1 (centres undefined)	> 100

System: U251 CNS
Assay: inhibition of tumour cell growth, NCI panel, 48 h

SMILES	TGI [µM]
O=NNc1ccc(S(=O)(=O)c2ccc3ccccc3c2)cn1	> 100
